Source: patent publication US8703961B2, “Thiazole derivatives for the treatment of diseases such as cancer” (Merck Patent GmbH, priority 2009, dated 2014)
pIC50: −log10 of the molar value.

How the values were obtained:
Assay in all cases: filter binding kinase assay
Format in all cases: biochemical
PRKACA = molecular target: T1, PRKACA (Homo sapiens, UniProt P17612); conditions: derived from % inhibition at 1 μM
T1 construct: purchased
How it was run: (§1)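 Radioactivity retained on P81 phosphocellulose filters is the read-out. Before the reaction begins, test substance sits with kinase and substrate for 5 minutes at room temperature. The ATP solution added is 5, 20 or 50 […] according to the kinase, and acid quench ends the reaction.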

MAPK11 = molecular target: T2, MAPK11 (Homo sapiens, UniProt Q15759); conditions: derived from % inhibition at 1 μM
T2 construct: purchased
How it was run: as §1

MST4 = molecular target: T3, MST4 (Homo sapiens, UniProt Q9P289); conditions: derived from % inhibition at 1 μM
T3 construct: purchased
How it was run: as §1

INSRR = molecular target: T4, INSRR (Homo sapiens, UniProt P14616); conditions: derived from % inhibition at 1 μM
T4 construct: purchased
How it was run: as §1

SYK = molecular target: T5, SYK (Homo sapiens, UniProt P43405); conditions: derived from % inhibition at 1 μM
T5 construct: purchased
How it was run: as §1

MAP4K2 (GCK) = molecular target: T6, MAP4K2 (GCK) (Homo sapiens, UniProt Q12851); conditions: for pIC50: derived from % inhibition at 1 μM
T6 construct: purchased
T6 sequence (Q12851 1-820): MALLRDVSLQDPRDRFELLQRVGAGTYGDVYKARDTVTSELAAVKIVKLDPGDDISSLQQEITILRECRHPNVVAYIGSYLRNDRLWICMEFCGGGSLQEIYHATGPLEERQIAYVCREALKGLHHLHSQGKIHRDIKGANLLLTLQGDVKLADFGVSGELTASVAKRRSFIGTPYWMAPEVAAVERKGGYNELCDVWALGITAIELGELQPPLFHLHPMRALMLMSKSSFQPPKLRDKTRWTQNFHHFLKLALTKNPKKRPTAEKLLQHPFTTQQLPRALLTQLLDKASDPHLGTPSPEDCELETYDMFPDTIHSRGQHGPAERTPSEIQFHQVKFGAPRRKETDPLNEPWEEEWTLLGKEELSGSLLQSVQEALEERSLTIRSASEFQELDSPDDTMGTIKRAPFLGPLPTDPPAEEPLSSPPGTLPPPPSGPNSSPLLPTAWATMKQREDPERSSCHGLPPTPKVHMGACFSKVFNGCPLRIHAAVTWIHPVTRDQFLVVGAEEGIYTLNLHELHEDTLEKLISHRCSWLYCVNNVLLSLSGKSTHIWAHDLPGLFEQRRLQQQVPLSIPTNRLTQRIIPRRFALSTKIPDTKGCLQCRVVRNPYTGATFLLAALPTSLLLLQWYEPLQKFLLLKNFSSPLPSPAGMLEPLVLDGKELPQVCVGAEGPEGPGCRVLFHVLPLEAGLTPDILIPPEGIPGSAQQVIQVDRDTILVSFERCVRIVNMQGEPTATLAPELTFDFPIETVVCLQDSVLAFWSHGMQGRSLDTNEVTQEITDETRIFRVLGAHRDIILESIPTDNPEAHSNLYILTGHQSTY
How it was run: as §1

MYLK = molecular target: T7, MYLK (Homo sapiens, UniProt Q15746); conditions: derived from % inhibition at 1 μM
T7 construct: purchased
How it was run: as §1

DYRK2 = molecular target: T8, DYRK2 (Homo sapiens, UniProt Q92630); conditions: derived from % inhibition at 1 μM
T8 construct: purchased
T8 sequence (Q92630 1-601): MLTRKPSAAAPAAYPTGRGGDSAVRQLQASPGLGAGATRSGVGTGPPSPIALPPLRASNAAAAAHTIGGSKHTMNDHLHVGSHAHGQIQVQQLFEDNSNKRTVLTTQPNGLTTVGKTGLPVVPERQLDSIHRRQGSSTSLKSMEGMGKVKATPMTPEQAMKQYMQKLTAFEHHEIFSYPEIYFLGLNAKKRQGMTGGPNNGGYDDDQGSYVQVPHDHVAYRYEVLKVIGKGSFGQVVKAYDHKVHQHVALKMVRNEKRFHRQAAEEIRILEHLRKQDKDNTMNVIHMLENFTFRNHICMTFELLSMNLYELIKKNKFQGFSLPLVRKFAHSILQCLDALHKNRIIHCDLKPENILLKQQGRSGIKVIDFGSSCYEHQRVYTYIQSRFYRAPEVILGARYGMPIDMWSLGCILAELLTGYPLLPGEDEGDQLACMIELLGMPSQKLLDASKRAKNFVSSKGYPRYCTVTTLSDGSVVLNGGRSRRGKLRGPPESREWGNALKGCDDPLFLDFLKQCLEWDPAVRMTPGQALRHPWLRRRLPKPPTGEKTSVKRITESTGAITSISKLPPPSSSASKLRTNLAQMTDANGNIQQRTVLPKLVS
How it was run: as §1

AURKB = molecular target: T9, AURKB (Homo sapiens, UniProt Q96GD4); conditions: derived from % inhibition at 1 μM
T9 construct: purchased
How it was run: as §1

MAPKAPK2 = molecular target: T10, MAPKAPK2 (Homo sapiens, UniProt P49137); conditions: derived from % inhibition at 1 μM
T10 construct: purchased
How it was run: as §1

FGFR1 = molecular target: T11, FGFR1 (Homo sapiens, UniProt P11362); conditions: derived from % inhibition at 1 μM
T11 construct: purchased
How it was run: as §1

SRC = molecular target: T12, SRC (Homo sapiens, UniProt P12931); conditions: derived from % inhibition at 1 μM
T12 construct: purchased
How it was run: as §1

PAK2 = molecular target: T13, PAK2 (Homo sapiens, UniProt Q13177); conditions: derived from % inhibition at 1 μM
T13 construct: purchased
How it was run: as §1

YES1 = molecular target: T14, YES1 (Homo sapiens, UniProt P07947); conditions: derived from % inhibition at 1 μM
T14 construct: purchased
How it was run: as §1

PAK4 (PAK-4) = molecular target: T15, PAK4 (PAK-4) (Homo sapiens, UniProt O96013); conditions: for pIC50: derived from % inhibition at 1 μM
T15 construct: purchased
How it was run: as §1

T10 sequence (P49137 whole entry, species assumed): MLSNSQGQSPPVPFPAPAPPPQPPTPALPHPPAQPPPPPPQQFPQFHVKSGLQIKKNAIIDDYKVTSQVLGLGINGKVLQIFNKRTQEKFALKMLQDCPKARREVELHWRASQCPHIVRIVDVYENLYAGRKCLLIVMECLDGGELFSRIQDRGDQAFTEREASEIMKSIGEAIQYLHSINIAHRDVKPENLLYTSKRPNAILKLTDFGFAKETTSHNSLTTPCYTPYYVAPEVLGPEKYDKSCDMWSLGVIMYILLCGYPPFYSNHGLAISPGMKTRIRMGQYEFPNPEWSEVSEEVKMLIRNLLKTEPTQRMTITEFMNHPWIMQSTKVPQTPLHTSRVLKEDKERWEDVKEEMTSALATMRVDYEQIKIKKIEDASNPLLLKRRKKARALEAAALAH
T14 sequence (P07947 whole entry, species assumed): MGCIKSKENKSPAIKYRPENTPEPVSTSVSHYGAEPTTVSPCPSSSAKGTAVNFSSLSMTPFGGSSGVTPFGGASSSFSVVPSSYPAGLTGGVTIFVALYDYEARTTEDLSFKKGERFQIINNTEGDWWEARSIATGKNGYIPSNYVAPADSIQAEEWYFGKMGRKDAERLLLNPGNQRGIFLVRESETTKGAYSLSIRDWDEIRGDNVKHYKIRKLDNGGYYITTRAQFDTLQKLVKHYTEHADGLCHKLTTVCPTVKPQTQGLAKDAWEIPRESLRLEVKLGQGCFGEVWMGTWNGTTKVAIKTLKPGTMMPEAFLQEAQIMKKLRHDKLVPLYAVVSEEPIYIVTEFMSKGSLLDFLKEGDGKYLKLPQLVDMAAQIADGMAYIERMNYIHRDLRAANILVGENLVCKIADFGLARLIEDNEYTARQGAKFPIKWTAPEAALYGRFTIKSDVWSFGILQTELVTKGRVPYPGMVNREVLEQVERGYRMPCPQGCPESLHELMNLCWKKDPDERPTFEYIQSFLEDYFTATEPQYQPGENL
T12 sequence (P12931 whole entry, species assumed): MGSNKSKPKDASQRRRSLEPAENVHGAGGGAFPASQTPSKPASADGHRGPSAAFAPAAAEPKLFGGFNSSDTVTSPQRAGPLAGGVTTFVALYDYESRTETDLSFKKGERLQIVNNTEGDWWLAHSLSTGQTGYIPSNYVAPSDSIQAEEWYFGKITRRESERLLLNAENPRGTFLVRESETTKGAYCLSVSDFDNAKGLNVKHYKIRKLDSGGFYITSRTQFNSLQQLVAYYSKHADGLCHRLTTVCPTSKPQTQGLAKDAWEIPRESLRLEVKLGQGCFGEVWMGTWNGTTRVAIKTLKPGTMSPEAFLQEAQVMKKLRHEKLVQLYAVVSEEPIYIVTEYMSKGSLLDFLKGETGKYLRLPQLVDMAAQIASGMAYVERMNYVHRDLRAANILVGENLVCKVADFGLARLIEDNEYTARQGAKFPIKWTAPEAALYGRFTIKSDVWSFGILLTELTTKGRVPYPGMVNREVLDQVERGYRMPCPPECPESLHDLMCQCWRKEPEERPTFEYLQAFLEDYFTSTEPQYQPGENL
T4 sequence (P14616 27-1297, species assumed): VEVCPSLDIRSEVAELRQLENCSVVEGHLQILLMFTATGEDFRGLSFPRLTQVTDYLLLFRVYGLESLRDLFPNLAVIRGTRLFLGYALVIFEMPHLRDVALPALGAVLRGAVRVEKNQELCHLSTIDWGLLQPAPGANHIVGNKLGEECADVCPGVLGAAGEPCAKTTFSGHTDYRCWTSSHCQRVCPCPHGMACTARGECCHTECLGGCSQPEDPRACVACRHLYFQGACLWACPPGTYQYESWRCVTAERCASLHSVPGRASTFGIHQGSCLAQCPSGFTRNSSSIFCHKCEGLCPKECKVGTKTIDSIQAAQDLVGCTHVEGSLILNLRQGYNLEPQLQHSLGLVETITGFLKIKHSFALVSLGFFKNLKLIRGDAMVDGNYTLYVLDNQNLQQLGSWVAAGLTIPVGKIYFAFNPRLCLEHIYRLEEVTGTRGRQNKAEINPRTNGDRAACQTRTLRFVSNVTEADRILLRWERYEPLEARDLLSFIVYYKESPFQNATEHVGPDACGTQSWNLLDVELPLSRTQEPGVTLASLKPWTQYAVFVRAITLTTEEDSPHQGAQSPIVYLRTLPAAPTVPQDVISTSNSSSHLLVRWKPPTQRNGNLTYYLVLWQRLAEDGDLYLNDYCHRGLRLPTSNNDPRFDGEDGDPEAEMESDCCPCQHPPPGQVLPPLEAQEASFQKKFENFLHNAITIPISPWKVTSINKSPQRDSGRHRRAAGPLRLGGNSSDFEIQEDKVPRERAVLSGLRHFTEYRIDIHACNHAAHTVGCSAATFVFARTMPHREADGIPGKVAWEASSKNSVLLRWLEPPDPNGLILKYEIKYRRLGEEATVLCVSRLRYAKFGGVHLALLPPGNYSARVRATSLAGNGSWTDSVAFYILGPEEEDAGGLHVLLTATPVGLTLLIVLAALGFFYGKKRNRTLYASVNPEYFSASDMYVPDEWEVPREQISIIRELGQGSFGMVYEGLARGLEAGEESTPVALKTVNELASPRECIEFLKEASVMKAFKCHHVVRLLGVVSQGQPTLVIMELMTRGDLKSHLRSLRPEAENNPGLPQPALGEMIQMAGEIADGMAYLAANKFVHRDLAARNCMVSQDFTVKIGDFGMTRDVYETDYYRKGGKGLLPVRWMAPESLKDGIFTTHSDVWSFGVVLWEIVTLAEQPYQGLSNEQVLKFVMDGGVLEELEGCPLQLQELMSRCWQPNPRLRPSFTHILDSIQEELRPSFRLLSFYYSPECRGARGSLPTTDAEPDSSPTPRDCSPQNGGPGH
T3 sequence (Q9P289 whole entry, species assumed): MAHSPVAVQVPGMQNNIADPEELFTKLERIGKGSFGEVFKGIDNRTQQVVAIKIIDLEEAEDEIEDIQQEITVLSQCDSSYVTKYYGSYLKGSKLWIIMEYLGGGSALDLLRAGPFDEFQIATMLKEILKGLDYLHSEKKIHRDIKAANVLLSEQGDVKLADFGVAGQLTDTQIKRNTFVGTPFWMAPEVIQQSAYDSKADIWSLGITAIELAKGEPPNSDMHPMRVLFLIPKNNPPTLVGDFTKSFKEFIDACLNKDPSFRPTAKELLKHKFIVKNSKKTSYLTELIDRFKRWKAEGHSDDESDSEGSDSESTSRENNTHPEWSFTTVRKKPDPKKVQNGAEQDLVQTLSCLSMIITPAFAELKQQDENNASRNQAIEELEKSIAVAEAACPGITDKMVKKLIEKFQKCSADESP
T15 sequence (O96013 whole entry, species assumed): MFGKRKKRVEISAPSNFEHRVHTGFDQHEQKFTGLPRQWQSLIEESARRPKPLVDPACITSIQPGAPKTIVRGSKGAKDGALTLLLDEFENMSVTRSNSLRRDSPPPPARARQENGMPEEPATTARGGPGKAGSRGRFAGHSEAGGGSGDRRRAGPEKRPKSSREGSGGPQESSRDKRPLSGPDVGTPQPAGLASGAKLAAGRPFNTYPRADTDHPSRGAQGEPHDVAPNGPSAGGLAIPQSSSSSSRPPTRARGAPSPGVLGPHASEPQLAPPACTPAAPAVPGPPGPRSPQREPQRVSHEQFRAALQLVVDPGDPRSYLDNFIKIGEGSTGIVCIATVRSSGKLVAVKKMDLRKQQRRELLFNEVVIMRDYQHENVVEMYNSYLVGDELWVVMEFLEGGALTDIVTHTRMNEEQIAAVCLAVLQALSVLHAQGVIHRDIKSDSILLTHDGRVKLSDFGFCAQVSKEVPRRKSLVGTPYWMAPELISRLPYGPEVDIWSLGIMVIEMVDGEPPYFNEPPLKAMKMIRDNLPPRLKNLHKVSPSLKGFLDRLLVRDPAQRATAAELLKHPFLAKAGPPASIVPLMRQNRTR
T9 sequence (Q96GD4 whole entry, species assumed): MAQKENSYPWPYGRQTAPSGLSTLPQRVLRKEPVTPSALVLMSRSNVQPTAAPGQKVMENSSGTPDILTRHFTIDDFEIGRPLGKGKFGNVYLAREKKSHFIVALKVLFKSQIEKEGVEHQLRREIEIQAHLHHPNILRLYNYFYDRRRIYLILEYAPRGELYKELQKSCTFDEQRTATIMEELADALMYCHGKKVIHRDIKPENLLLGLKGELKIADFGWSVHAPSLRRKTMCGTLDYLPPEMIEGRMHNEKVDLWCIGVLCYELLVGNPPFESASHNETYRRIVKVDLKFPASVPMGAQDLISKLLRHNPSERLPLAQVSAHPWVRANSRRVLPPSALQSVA
T13 sequence (Q13177 whole entry, species assumed): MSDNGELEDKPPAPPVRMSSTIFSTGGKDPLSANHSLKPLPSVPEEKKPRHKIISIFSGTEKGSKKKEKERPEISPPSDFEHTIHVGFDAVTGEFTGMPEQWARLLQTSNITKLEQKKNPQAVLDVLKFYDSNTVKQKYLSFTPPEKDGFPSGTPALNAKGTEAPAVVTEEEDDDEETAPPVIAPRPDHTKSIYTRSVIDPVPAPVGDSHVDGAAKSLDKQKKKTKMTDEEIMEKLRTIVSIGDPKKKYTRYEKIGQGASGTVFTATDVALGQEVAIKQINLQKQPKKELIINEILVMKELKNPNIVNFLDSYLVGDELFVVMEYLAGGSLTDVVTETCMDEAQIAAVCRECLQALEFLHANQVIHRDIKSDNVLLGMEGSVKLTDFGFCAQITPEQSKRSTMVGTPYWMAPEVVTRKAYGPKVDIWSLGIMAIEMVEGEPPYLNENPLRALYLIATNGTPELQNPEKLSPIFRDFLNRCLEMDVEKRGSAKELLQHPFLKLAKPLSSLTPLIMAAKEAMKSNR
T2 sequence (Q15759 whole entry, species assumed): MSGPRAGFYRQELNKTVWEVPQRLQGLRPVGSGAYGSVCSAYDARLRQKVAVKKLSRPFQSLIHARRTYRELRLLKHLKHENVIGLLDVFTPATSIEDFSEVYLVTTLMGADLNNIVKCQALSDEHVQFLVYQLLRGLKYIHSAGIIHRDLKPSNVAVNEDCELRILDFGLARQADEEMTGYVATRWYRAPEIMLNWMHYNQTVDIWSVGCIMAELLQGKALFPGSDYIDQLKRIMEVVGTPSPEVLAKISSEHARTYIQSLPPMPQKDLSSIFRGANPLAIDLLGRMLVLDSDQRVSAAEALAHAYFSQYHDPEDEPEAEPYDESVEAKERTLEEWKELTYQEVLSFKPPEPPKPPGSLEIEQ

SMILES	pIC50 (PRKACA)	pIC50 (MAPK11)	pIC50 (MST4)	pIC50 (INSRR)	pIC50 (SYK)	pIC50 (MAP4K2 (GCK))	pIC50 (MYLK)	pIC50 (DYRK2)	pIC50 (AURKB)	pIC50 (MAPKAPK2)	pIC50 (FGFR1)	pIC50 (SRC)	pIC50 (PAK2)	pIC50 (YES1)	pIC50 (PAK4 (PAK-4))	remaining activity at 1 µM (MAP4K2 (GCK); read-out: residual kinase activity GCK)	remaining activity at 1 µM (PAK4 (PAK-4); read-out: residual kinase activity PAK-4)
CC(C)(C)OC(=O)Nc1nc(-c2ccncc2)sc1C#CCN1CCOCC1 [Compound A25, tert-butyl[5-(3-morpholin-4-ylprop-1-ynyl)-2-pyridin-4-ylthiazol-4-yl]-carbamate]	< 6.00	< 6.00	< 6.00	< 6.00	< 6.00	< 6.00	< 6.00	< 6.00	< 6.00	< 6.00	< 6.00	5.00 to 6.00	< 6.00	< 6.00	< 6.00	–	–
c1ccc(Cc2c[nH]c3ncsc23)cc1 [Compound A7, 6-benzyl-4H-pyrrolo[2,3-d]thiazole]	< 6.00	5.00 to 6.00	< 6.00	< 6.00	< 6.00	5.00 to 6.00	< 6.00	< 6.00	5.00 to 6.00	< 6.00	5.00 to 6.00	5.00 to 6.00	5.00 to 6.00	< 6.00	< 6.00	–	–
Nc1ncsc1C#Cc1cnc2[nH]ccc2c1 [Compound A22, 5-(1H-pyrrolo[2,3-b]pyridin-5-ylethynyl)thiazol-4-ylamine]	5.00 to 6.00	< 6.00	5.00 to 6.00	5.00 to 6.00	4.00 to 5.00	6.00 to 8.00	< 6.00	< 6.00	4.00 to 5.00	< 6.00	5.00 to 6.00	4.00 to 5.00	< 6.00	5.00 to 6.00	6.00 to 8.00	31%	34%
Nc1ncsc1C#Cc1cccc(O)c1 [Compound A27, 3-(4-aminothiazol-5-ylethynyl)phenol]	5.00 to 6.00	5.00 to 6.00	< 6.00	< 6.00	4.00 to 5.00	5.00 to 6.00	5.00 to 6.00	5.00 to 6.00	4.00 to 5.00	4.00 to 5.00	< 6.00	5.00 to 6.00	< 6.00	< 6.00	< 6.00	–	–
CC(C)(C)OC(=O)Nc1ncsc1C#CCN1C(=O)c2ccccc2C1=O [Compound A26, tert-butyl{5-[3-(1,3-dioxo-1,3-dihydroisoindol-2-yl)prop-1-ynyl]-thiazol-4-yl}carbamate]	4.00 to 5.00	< 6.00	4.00 to 5.00	5.00 to 6.00	< 6.00	5.00 to 6.00	< 6.00	< 6.00	< 6.00	4.00 to 5.00	5.00 to 6.00	4.00 to 5.00	< 6.00	< 6.00	5.00 to 6.00	–	–
